Test results reported in US20130303575A1, “ADMINISTRATION OF AN INHIBITOR OF HDAC” (priority 2007, published 2013).

Key:
clinical = conditions: human, in vivo
Method: (§1) Histone H3 and H4 acetylation was analyzed in peripheral blood mononuclear cells (PBMCs) by immunohistochemical detection.
Blood samples (5 ml) were taken at the following times:
Blood was centrifuged for 10 minutes at 2000 g at room temperature within approximately 30 minutes after withdrawal; plasma was separated and stored at −18° C. to −25° C. until analysis.

[1] = system: Histone H3 and H4 acetylation; test: Histone H3 and H4 acetylation in PBMCs by immunohistochemical detection (Example 1); assay type: in vivo, human; conditions: compared with pretreatment, preliminary analyses
Method: as §1

[2] = system: advanced solid tumors or lymphomas; test: Response evaluation in patients with advanced solid tumors or lymphoma (Example 2); assay type: in vivo, human
Method: At study entry, history, physical examination, laboratory studies (CBC, electrolytes, creatinine, blood urea nitrogen, total and direct bilirubin, ALT, AST, alkaline phosphatase, uric acid, prothrombin time, partial thromboplastin time, and urinalysis), computed tomography scan and chest x-ray and ECG were performed. Clinical assessments, including a physical examination and adverse event evaluation, were conducted at each follow-up. Adverse events were graded by the NCI Common Toxicity Criteria (version 2.0). Computed tomography scans and staging was performed every 6 weeks for the q14-day schedule. Disease-specific staging techniques, such as bone marrow aspirate and biopsy, flow cytometry, cutaneous lesion photography, or bone scan were used as indicated. Response evaluations used the Response Evaluation Criteria in Solid Tumors and the Cheson criteria for lymphoma. Multiple-gated acquisition (MUGA) scans were obtained on the q14-day schedule at base line, before course 2 and at each restaging. Laboratory studies (CBC with differential, chemistry 20, prothrombin time and […] thromboplastin time) were performed on days 1, 3, 5, 7 and repeated weakly.

Nc1ccccc1NC(=O)c1ccc(CNC(=O)OCc2cccnc2)cc1 [SNDX-275, N-(2-aminophenyl) 4-[N-(pyrid-3-yl)methyloxycarbonylaminomethyl]benzamide]
Tmax (clinical): 0.5 to 2.0 h | apparent drug clearance (CL/F) (clinical): low | AUC (clinical; 2 mg/m2): 107 ng·h/mL | AUC(0-t) (clinical; 2 mg/m2, AUC(0-48)): 60.1 ng·h/mL | Cmax (clinical; 2 mg/m2, Cmax): 25.3 ng/mL | AUC (clinical; 2 mg/m2, Mean AUC): 135 ng·h/mL | half-life (clinical; 2 mg/m2, Mean t1/2): 54 h | Tmax (clinical; 2 mg/m2, Median Tmax): 0.6 h | half-life (clinical; 2 mg/m2, T1/2): 100 h | Tmax (clinical; 2 mg/m2, Tmax): 0.5 h | AUC (clinical; 4 mg/m2, Mean AUC): 323 ng·h/mL | half-life (clinical; 4 mg/m2, Mean t1/2): 87.9 h | Tmax (clinical; 4 mg/m2, Median Tmax): 0.5 h | T1/2 (clinical; 5 mg/m2): 77 h | AUC (clinical; 5 mg/m2, AUC): 432 ng·h/mL | AUC(0-t) (clinical; 5 mg/m2, AUC(0-48)): 153 ng·h/mL | Cmax (clinical; 5 mg/m2, Cmax): 72 ng/mL | AUC (clinical; 5 mg/m2, Mean AUC): 494 ng·h/mL | Cmax (clinical; 5 mg/m2, Mean Cmax): 77.3 ng/mL | half-life (clinical; 5 mg/m2, Mean t1/2): 133 h | Tmax (clinical; 5 mg/m2, Median Tmax): 0.5 h | half-life (clinical; 5 mg/m2, T1/2): 112 h | Mean CL/F (clinical; 6 mg/m2): 16.7 L/h | AUC (clinical; 6 mg/m2, AUC): 412 ng·h/mL | AUC(0-t) (clinical; 6 mg/m2, AUC(0-48)): 170 ng·h/mL | AUC (clinical; 6 mg/m2, Mean AUC): 459 ng·h/mL | Cmax (clinical; 6 mg/m2, Mean Cmax): 37.3 ng/mL | half-life (clinical; 6 mg/m2, Mean t1/2): 107 h | Tmax (clinical; 6 mg/m2, Median Tmax): 1 h | half-life (clinical; 6 mg/m2, T1/2): 102 h | half-life (clinical; T1/2): ~100 h | Tmax (clinical; Tmax): ≤ 1 h | histone H3 and H4 acetylation in PBMCs [1]: increase in histone H3 and H4 acetylation | patients remaining on treatment for greater than 3 months ([2]; human, in vivo): Ten of 29 | objective responses ([2]; q14-day schedule): not observed | patients with stable disease ([2]; q14-day schedule): 15
